Source: US20230097090A1, “IMPROVED LIPID NANOPARTICLES FOR DELIVERY OF NUCLEIC ACIDS” (ACUITAS THERAPEUTICS, INC., priority 2019, published 2023)

Assay: pKa of representative cationic lipids
Format: physicochemical
Settings: Table 2, lipids of Formula (II)

SMILES	pKa
CCCCCCCCC(=O)N(CCCN(C)C)C(CCCCCCCCCOC(=O)C(CCCC)CCCCCC)CCCCCCCCCOC(=O)C(CCCC)CCCCCC (stereo not shown) [II-17]	6.27
CCCCC(CCCC)OC(=O)CCCCCCCCC(CCCCCCCCC(=O)OC(CCCC)CCCC)N(CCCN(C)C)C(=O)CCCCCCCC(=O)OC(CCCC)CCCC [II-24]	6.14

Same assay, conditions: first Table 12, representative lipid compounds XIII

SMILES	pKa
CCCCCCCCCCN(C(=O)CCCCN(C)C)C(CCCCCCCCC(=O)OCC(CCCC)CCCCCC)CCCCCCCCC(=O)OCC(CCCC)CCCCCC (stereo not shown) [XIII-7]	6.74
CCCCCCCCCCN(C(=O)CCCCN(CC)CC)C(CCCCCCCCC(=O)OCC(CCCC)CCCCCC)CCCCCCCCC(=O)OCC(CCCC)CCCCCC (stereo not shown) [XIII-8]	6.68
CCCCCCCCCCN(C(=O)CCCCN1CCCC1)C(CCCCCCCCC(=O)OCC(CCCC)CCCCCC)CCCCCCCCC(=O)OCC(CCCC)CCCCCC (stereo not shown) [XIII-9]	6.83
CCCCCCCCCCN(C(=O)CCCN(C)C)C(CCCCCC(=O)OCC(CCCCCC)CCCCCCCC)CCCCCC(=O)OCC(CCCCCC)CCCCCCCC (stereo not shown) [XIII-16]	6.77
CCCCCCCCCCN(C(=O)CCCN(C)C)C(CCCCCCCCC(=O)OCC(CCCC)CCCCCC)CCCCCCCCC(=O)OCC(CCCC)CCCCCC (stereo not shown) [XIII-18]	6.47
CCCCCCC(CCCC)COC(=O)CCCCCCCCC(CCCCCCCCC(=O)OCC(CCCC)CCCCCC)N(CC(CC)CCCC)C(=O)CCCN(C)C (stereo not shown) [XIII-20]	6.84
CCCCCCCCCN(C(=O)CCN(C)C)C(CCCCCCCCC(=O)OCC(CCCC)CCCCCC)CCCCCCCCC(=O)OCC(CCCC)CCCCCC (stereo not shown) [XIII-25]	6.2
CCCCCCCCCCN(C(=O)CCCN1CCCC1)C(CCCCCC(=O)OCC(CCCCCC)CCCCCCCC)CCCCCC(=O)OCC(CCCCCC)CCCCCCCC (stereo not shown) [XIII-29]	6.81
CCCCCCCCCCN(C(=O)CCCCN(CCCC)CCCC)C(CCCCCCCCC(=O)OCC(CCCC)CCCCCC)CCCCCCCCC(=O)OCC(CCCC)CCCCCC (stereo not shown) [XIII-31]	5.05
CCCCCCCCCN(C(=O)CCCN(C)C)C(CCCCCCCCCOC(=O)C(CCCC)CCCCCC)CCCCCCCCCOC(=O)C(CCCC)CCCCCC (stereo not shown) [XIII-32]	6.41
CCCCCCCCCCN(C(=O)CCN1CCCC1)C(CCCCCCCCC(=O)OCC(CCCC)CCCCCC)CCCCCCCCC(=O)OCC(CCCC)CCCCCC (stereo not shown) [XIII-33]	6.19
